Assay results published in PubChem BioAssay (NCI).
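Step 1: Grow cells in 96-well plates. Step 2: Expose to compound for 48 hours at 5 concentrations. Step 3: Interpolate endpoints linearly; if unreached, use highest concentration. The concentration for 50% growth inhibition is given as GI50. The concentration for full growth arrest is given as TGI.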

Tests used:
Experiment in all cases: NCI tumour cell line growth inhibition, 48 h
A549 NSCLC = system: A549 NSCLC
ACHN renal = system: ACHN renal
BT-549 breast = system: BT-549 breast
CAKI-1 renal = system: CAKI-1 renal
CCRF-CEM leukemia = system: CCRF-CEM leukemia
COLO 205 colon = system: COLO 205 colon
DU-145 prostate = system: DU-145 prostate
EKVX NSCLC = system: EKVX NSCLC
HCC-2998 colon = system: HCC-2998 colon
HCT-116 colon = system: HCT-116 colon
HCT-15 colon = system: HCT-15 colon
HOP-62 NSCLC = system: HOP-62 NSCLC
HOP-92 NSCLC = system: HOP-92 NSCLC
HS 578T breast = system: HS 578T breast
HT29 colon = system: HT29 colon
K-562 leukemia = system: K-562 leukemia
KM12 colon = system: KM12 colon
LOX IMVI melanoma = system: LOX IMVI melanoma
MALME-3M melanoma = system: MALME-3M melanoma
MCF7 breast = system: MCF7 breast
MDA-MB-231 breast = system: MDA-MB-231 breast
MDA-MB-435 = system: MDA-MB-435
NCI-H226 lung = system: NCI-H226 lung
NCI-H23 lung = system: NCI-H23 lung
NCI-H460 lung = system: NCI-H460 lung
NCI/ADR-RES ovarian = system: NCI/ADR-RES ovarian
OVCAR-3 ovarian = system: OVCAR-3 ovarian
OVCAR-4 ovarian = system: OVCAR-4 ovarian
OVCAR-5 ovarian = system: OVCAR-5 ovarian
OVCAR-8 ovarian = system: OVCAR-8 ovarian
PC-3 prostate = system: PC-3 prostate
RPMI-8226 leukemia = system: RPMI-8226 leukemia
SF-268 CNS = system: SF-268 CNS
SF-295 CNS = system: SF-295 CNS
SF-539 CNS = system: SF-539 CNS
SK-MEL-28 melanoma = system: SK-MEL-28 melanoma
SK-MEL-5 melanoma = system: SK-MEL-5 melanoma
SK-OV-3 ovarian = system: SK-OV-3 ovarian
SN12C renal = system: SN12C renal
SNB-19 CNS = system: SNB-19 CNS
SNB-75 CNS = system: SNB-75 CNS
SW-620 colon = system: SW-620 colon
T-47D breast = system: T-47D breast
TK-10 renal = system: TK-10 renal
U251 CNS = system: U251 CNS
UACC-257 melanoma = system: UACC-257 melanoma
UACC-62 melanoma = system: UACC-62 melanoma

COc1cc(S(=O)(=O)Nc2ccc(C(=O)/C=C/c3ccc(O)cc3)cc2)ccc1F
GI50 (A549 NSCLC): > 100 µM | TGI (A549 NSCLC): > 100 µM | GI50 (ACHN renal): > 100 µM | TGI (ACHN renal): > 100 µM | GI50 (BT-549 breast): > 100 µM | TGI (BT-549 breast): > 100 µM | GI50 (CAKI-1 renal): > 100 µM | TGI (CAKI-1 renal): > 100 µM | GI50 (CCRF-CEM leukemia): > 100 µM | TGI (CCRF-CEM leukemia): > 100 µM | GI50 (COLO 205 colon): > 100 µM | TGI (COLO 205 colon): > 100 µM | GI50 (DU-145 prostate): > 100 µM | TGI (DU-145 prostate): > 100 µM | GI50 (EKVX NSCLC): 80.5 µM | TGI (EKVX NSCLC): > 100 µM | GI50 (HCC-2998 colon): > 100 µM | TGI (HCC-2998 colon): > 100 µM | GI50 (HCT-116 colon): > 100 µM | TGI (HCT-116 colon): > 100 µM | GI50 (HCT-15 colon): > 100 µM | TGI (HCT-15 colon): > 100 µM | GI50 (HOP-62 NSCLC): > 100 µM | TGI (HOP-62 NSCLC): > 100 µM | GI50 (HOP-92 NSCLC): 1.55 µM | TGI (HOP-92 NSCLC): 27.5 µM | GI50 (HS 578T breast): > 100 µM | TGI (HS 578T breast): > 100 µM | GI50 (HT29 colon): > 100 µM | TGI (HT29 colon): > 100 µM | GI50 (K-562 leukemia): > 100 µM | TGI (K-562 leukemia): > 100 µM | GI50 (KM12 colon): > 100 µM | TGI (KM12 colon): > 100 µM | GI50 (LOX IMVI melanoma): > 100 µM | TGI (LOX IMVI melanoma): > 100 µM | GI50 (MALME-3M melanoma): 35.1 µM | TGI (MALME-3M melanoma): > 100 µM | GI50 (MCF7 breast): > 100 µM | TGI (MCF7 breast): > 100 µM | GI50 (MDA-MB-231 breast): 0.0267 µM | TGI (MDA-MB-231 breast): 9.12 µM | GI50 (MDA-MB-435): > 100 µM | TGI (MDA-MB-435): > 100 µM | GI50 (NCI-H226 lung): 22.4 µM | TGI (NCI-H226 lung): 76.2 µM | GI50 (NCI-H23 lung): > 100 µM | TGI (NCI-H23 lung): > 100 µM | GI50 (NCI-H460 lung): > 100 µM | TGI (NCI-H460 lung): > 100 µM | GI50 (NCI/ADR-RES ovarian): > 100 µM | TGI (NCI/ADR-RES ovarian): > 100 µM | GI50 (OVCAR-3 ovarian): > 100 µM | TGI (OVCAR-3 ovarian): > 100 µM | GI50 (OVCAR-4 ovarian): > 100 µM | TGI (OVCAR-4 ovarian): > 100 µM | GI50 (OVCAR-5 ovarian): > 100 µM | TGI (OVCAR-5 ovarian): > 100 µM | GI50 (OVCAR-8 ovarian): > 100 µM | TGI (OVCAR-8 ovarian): > 100 µM | GI50 (PC-3 prostate): > 100 µM | TGI (PC-3 prostate): > 100 µM | GI50 (RPMI-8226 leukemia): 58.5 µM | TGI (RPMI-8226 leukemia): > 100 µM | GI50 (SF-268 CNS): > 100 µM | TGI (SF-268 CNS): > 100 µM | GI50 (SF-295 CNS): > 100 µM | TGI (SF-295 CNS): > 100 µM | GI50 (SF-539 CNS): > 100 µM | TGI (SF-539 CNS): > 100 µM | GI50 (SK-MEL-28 melanoma): > 100 µM | TGI (SK-MEL-28 melanoma): > 100 µM | GI50 (SK-MEL-5 melanoma): > 100 µM | TGI (SK-MEL-5 melanoma): > 100 µM | GI50 (SK-OV-3 ovarian): > 100 µM | TGI (SK-OV-3 ovarian): > 100 µM | GI50 (SN12C renal): 2.61 µM | TGI (SN12C renal): 89.7 µM | GI50 (SNB-19 CNS): > 100 µM | TGI (SNB-19 CNS): > 100 µM | GI50 (SNB-75 CNS): 87.5 µM | TGI (SNB-75 CNS): > 100 µM | GI50 (SW-620 colon): > 100 µM | TGI (SW-620 colon): > 100 µM | GI50 (T-47D breast): > 100 µM | TGI (T-47D breast): > 100 µM | GI50 (TK-10 renal): 47 µM | TGI (TK-10 renal): > 100 µM | GI50 (U251 CNS): > 100 µM | TGI (U251 CNS): > 100 µM | GI50 (UACC-257 melanoma): > 100 µM | TGI (UACC-257 melanoma): > 100 µM | GI50 (UACC-62 melanoma): 57.6 µM | TGI (UACC-62 melanoma): > 100 µM
